Values joined by “and” are separate entries in the source; they are usually repeats but may differ in a detail not shown here. Equal entries are not always repeated. Non-standard residues stand in square brackets, D forms with d. Residues, ends and D or L forms follow the SMILES beside them. pS = N[C@@H](COP(=O)(O)O)C(=O)O
Tests used:
[1] = test system: Lewis rats; experiment: Chronic-EAN rat model of CIDP; details: 100 μg/rat i.p.
Method: Male Lewis rats, 7-8 weeks old, weighing 250-270 g, purchased from Charles River (Domaine des Oncins, L′Arbresle, France) were used.
Body weight and clinical scores are assessed daily until 60 days post-immunization (dpi). Severity of paresis is graded as follows: 0=no illness; 1=flaccid tail; 2=moderate paraparesis; 3=severe paraparesis; 4=tetraparesis; 5=death.
100 μg/rat P140 peptide in 500 μL water/saline (1:10) were intraperitoneally injected at 5, 7, 9, 13 dpi and 3 times per week from 22 dpi until the end of the study.

[2] = test system: peripheral T cells from lupus patients; details: cited from earlier work
[3] = test system: C57BL/6 mice; experiment: K/B×N serum transfer arthritis, preventive protocol; format: in vivo, mouse
Method: The TCR transgenic mice expressing the KRN and the MHC class II A^g7 molecule (K/B×N mice) have developed a severe inflammatory arthritis. The administration of serum of these mice to healthy recipient mice causes inflammatory arthritis over a period of about 15 days with a peak ignition around day 7 post-injection.
Two mouse serum administrations from K/B×N were performed (day 0 and day 2). The injection of serum (100 μl/mouse) is performed by intra-peritoneal (ip) injection in mice C57BL/6 (or B6) for 8 weeks (n=10); untreated mouse (n=10).
The P140 peptide (100 μg/100 μl; iv retro-orbital) was administered as follows:
Curative treatment: Injection at day 1 and day 4, to guide the peak of inflammatory disease. Preventive treatment: Injection at day −7 and day −2. Bleeding S0 (at day 0) is followed by bloodletting conducted every six days to dispose of serum. The study ends when inflammation has returned to its basal level, to around day 20 (see FIG. 19).
During the peak of inflammation, every day the animals are evaluated, and swelling score of articulation is established. It is ranged from 0 to 4 and based on a joint observation of the animal. In practice, this score is given for each leg (4 values) and these values are added together to get a general score that ranges from 0 to 16 (FIG. 20).

[4] = test system: Balb/c mice; experiment: 31-day HDM-induced asthma model, airway response to methacholine (Flexivent); format: in vivo, mouse; details: for Crs / Ers / Rrs: per mouse
Method: The aim of this study was to evaluate the effect of the P140 phosphopeptide administered systemically (intravenously) in a 31-day model of HDM-induced asthma in mice. The P140 phosphopeptide was solubilized in sterile water (Braun) and 10x concentrate sterile saline was added to adjust osmolarity to 300 mosm. Osmolarity was controlled with a micro osmometer (Löser, type 15) and validated (303 mosm). The P140 phosphopeptide was used in vivo at the dose of 4 mg/kg by intravenous (i.v.) routes. Control animals received equivalent volumes (2 ml/kg) of saline (Table 8).
Nine-week-old male Balb/c mice were sensitized by intranasal (i.n.) administration of HDM extract (Stallergenes): 1 μg in 25 μl saline on days 0, 1, 2, 3, 4, and 10 μg on days 14 and 21. Mice were challenged by i.n. administration of HDM (1 μg) and/or saline on days 28, 29 and 30. Mice were treated by i.v. injection (2 ml/kg) of P140 or solvent on day 25 (see FIG. 12).
Airway response to Methacholine (Flexivent®). On day 31, airway responses to PBS then methacholine were assessed using a forced oscillation technique (Flexivent®, SCIREQ, Montreal, Canada) as described (Daubeuf et al, Bioprotocol, 645, 2013). Mice were anesthetized with an intraperitoneal injection of xylasine (Rompun®; 1 mg/kg), followed fifteen minutes later by an intraperitoneal injection of pentobarbital sodium (3.64 mg/Kg). The trachea was exposed and an 18-gauge metal needle was inserted into the trachea. Airways were connected to a computer-controlled small animal ventilator, and quasi-sinusoidally ventilated with a tidal volume of 10 ml/Kg at a frequency of 150 breaths/min and a positive end-expiratory pressure of 2 cm H2O to achieve a mean respiratory volume close to that of spontaneous breathing. After baseline measurement, each mouse was challenged for 10 sec with an aerosol of PBS generated with an in-line nebulizer and administered directly through the ventilator. Then, aerosolized methacholine (MCh) at 50 mg/ml was administered for 10 sec. The effect of methacholine was calculated as the peak response, i.e. the mean of the three maximal values integrated for calculation of airway resistance (R, cm H20·s·mL^−1), elastance (E, cm H20·mL^−1) and compliance (C, mL·cm H20^−1).
All mice were sensitized to HDM on days 0, 1, 2, 3, 4, 14, 21, and challenged either with saline ([…]) or HDM (challenge with allergen). Results are presented as means±SEM. Differences between groups were tested for statistical significance using Student's t test for inflammatory cells and a two-way ANOVA followed by Bonferroni post-test for airway responses.

[5] = test system: Raji cells; experiment: Cellular uptake of fluorescent P140 in Raji cells (flow cytometry); format: cell-based, human; details: fluorescent peptide in 10% trehalose compared with 5.4% mannitol
Text: FIG. 8. Cellular uptake of fluorescent P140 peptide in 5.4% mannitol or 10% trehalose in MRL/lpr B cells and Raji cells as visualized by flow cytometry. B cells were from 12-14 week-old MRL/lpr mice (primary cells); Raji cells are an established cell line derived in 1963 from B-lymphocyte of a patient with Burkitt's lymphoma.
For P140 peptide activity, HSC70 binding and endocytosis appear to be important. It is believed that endocytosis must occur through the clathrin route. This implies that peptide+excipient should have a size in the range of 30 to 500 nm in diameter. For example P140+mannitol are in the 100 nm region whereas P140+trehalose are below 10 nm and therefore not effective binding to HSC70. […] B cells were from 12-14 week-old MRL/lpr mice (primary cells); Raji cells are an established cell line derived in 1963 from B-lymphocyte of a patient with Burkitt's lymphoma. […] The confocal images show the late endosomal compartment where P140 localizes before homing into lysosomes; DAPI identifies DNA.

[6] = test system: MRL/lpr B cells; details: cited from earlier work
[7] = chronic asthma, methacholine 50 mg/ml, P140 i.v. 4 mg/kg day 25, p<0.05
[8] = HDM + P140 (HDM-challenged), first unlabelled sub-column (presumably PBS/baseline)
[9] = HDM + P140 (HDM-challenged), second unlabelled sub-column (presumably MCh 50 mg/mL)
[10] = P140, saline-challenged (chronic asthma), first unlabelled sub-column (presumably PBS/baseline)
[11] = P140, saline-challenged (chronic asthma), second unlabelled sub-column (presumably MCh 50 mg/mL)

SMILES: CC[C@H](C)[C@H](NC(=O)[C@H](Cc1ccccc1)NC(=O)[C@H](C)NC(=O)[C@H](Cc1ccc(O)cc1)NC(=O)CNC(=O)[C@H](CCCNC(=N)N)NC(=O)[C@@H]1CCCN1C(=O)[C@H](CCCCN)NC(=O)CNC(=O)[C@H](COP(=O)(O)O)NC(=O)[C@H](CCCNC(=N)N)NC(=O)[C@H](CCCCN)NC(=O)[C@H](CO)NC(=O)[C@H](Cc1ccc(O)cc1)NC(=O)[C@@H](NC(=O)[C@H](CCSC)NC(=O)[C@H](Cc1c[nH]cn1)NC(=O)[C@@H](NC(=O)[C@@H](N)CCCNC(=N)N)[C@@H](C)CC)C(C)C)C(=O)N[C@@H](CCC(=O)O)C(=O)N[C@@H](Cc1ccc(O)cc1)C(=O)O [Compound P140] (H-RIHMVYSKR[pS]GKPRGYAFIEY-OH; N-terminus and C-terminus assumed)
- Chronicity of the disease [1]: seems abolish the chronicity
- Maximal clinical scores ([1]; compared to untreated rats): decreased
- Onset of the disease ([1]; compared to untreated rats): delayed
- Weight loss during the disease course ([1]; compared to untreated rats): less important
- Proliferation of peripheral T cells from lupus patients ([2]; ex vivo (Monneaux et al., 2005)): does not induce proliferation
- Secretion of regulatory cytokine IL-10 in cell cultures ([2]; ex vivo, T cells from lupus patients (Monneaux et al., 2005)): high levels
- Clinical signs (swelling joints, weight loss, inflammation score) (in words) ([3]; K/B×N model): tend to be attenuated
- Weight loss ([3]; preventive protocol (injection day −7 and day −2), day 1 to day 7, controls 10%): 5%
- Increase in size of joints, right back legs ([3]; preventive protocol, day 0 to day 7, control mice about 22%): around 12%
- Increase in size of the joint, left hind paws ([3]; preventive protocol, day 0 to day 7, controls about 30%): about 15%
- General inflammation score, maximum ([3]; preventive protocol, sum of four legs, controls around 7, p=0.0156): ≤ 5
- Increase in size of articulation, left front leg ([3]; preventive protocol, controls 45%, P=0.0397): 20%
- Swelling in the joints of right front leg ([3]; preventive protocol, controls nearly 45%, p=0.0069): +20%
- Airway resistance, elastance or compliance (in words) ([4]; allergen (HDM)-challenged mice, compared to the solvent group): no effect
- Airway resistance, change vs solvent group ([4]; chronic asthma, methacholine 50 mg/ml, P140 i.v. 4 mg/kg day 25, non-significant (n=5)): −42%
- Airway compliance, change vs solvent group [4, 7]: +115%
- Elastance, change vs solvent group [4, 7]: −65%
- Crs [4, 8]: 0.0554 mL/cmH2O and 0.0514 mL/cmH2O and 0.0528 mL/cmH2O and 0.0566 mL/cmH2O and 0.0492 mL/cmH2O and 0.0458 mL/cmH2O and 0.0552 mL/cmH2O and 0.0589 mL/cmH2O
- Ers [4, 8]: 18.0582 cmH2O/mL and 19.4433 cmH2O/mL and 18.9515 cmH2O/mL and 17.6781 cmH2O/mL and 20.3326 cmH2O/mL and 21.8367 cmH2O/mL and 18.1106 cmH2O/mL and 16.9723 cmH2O/mL
- Rrs [4, 8]: 0.6405 cmH2O.s/mL and 0.6092 cmH2O.s/mL and 0.7972 cmH2O.s/mL and 0.5185 cmH2O.s/mL and 0.6804 cmH2O.s/mL and 0.6365 cmH2O.s/mL and 0.4744 cmH2O.s/mL and 0.5456 cmH2O.s/mL
- Crs [4, 9]: 0.0146 mL/cmH2O and 0.0075 mL/cmH2O and 0.0062 mL/cmH2O and 0.0065 mL/cmH2O and 0.0101 mL/cmH2O and 0.0060 mL/cmH2O and 0.0138 mL/cmH2O and 0.0081 mL/cmH2O
- Ers [4, 9]: 79.8018 cmH2O/mL and 148.4985 cmH2O/mL and 188.1151 cmH2O/mL and 219.9720 cmH2O/mL and 125.7688 cmH2O/mL and 173.4582 cmH2O/mL and 72.6033 cmH2O/mL and 131.8035 cmH2O/mL
- Rrs [4, 9]: 5.6421 cmH2O.s/mL and 10.3886 cmH2O.s/mL and 11.9654 cmH2O.s/mL and 10.5419 cmH2O.s/mL and 8.8810 cmH2O.s/mL and 13.0087 cmH2O.s/mL and 7.0705 cmH2O.s/mL and 9.7688 cmH2O.s/mL
- Rrs ([4]; P140, saline-challenged (chronic asthma)): 0.5590 cmH2O.s/mL and 0.8945 cmH2O.s/mL and 0.5926 cmH2O.s/mL and 0.8074 cmH2O.s/mL and 0.4418 cmH2O.s/mL
- Crs [4, 10]: 0.0545 mL/cmH2O and 0.0498 mL/cmH2O and 0.0569 mL/cmH2O and 0.0541 mL/cmH2O and 0.0650 mL/cmH2O
- Ers [4, 10]: 18.3671 cmH2O/mL and 20.0811 cmH2O/mL and 17.5777 cmH2O/mL and 18.4893 cmH2O/mL and 15.3975 cmH2O/mL
- Crs [4, 11]: 0.0304 mL/cmH2O and 0.0132 mL/cmH2O and 0.0380 mL/cmH2O and 0.0238 mL/cmH2O and 0.0370 mL/cmH2O
- Ers [4, 11]: 33.3720 cmH2O/mL and 84.9688 cmH2O/mL and 26.3200 cmH2O/mL and 42.4174 cmH2O/mL and 28.6047 cmH2O/mL
- Rrs [4, 11]: 4.1067 cmH2O.s/mL and 9.4002 cmH2O.s/mL and 2.2229 cmH2O.s/mL and 4.0926 cmH2O.s/mL and 2.1844 cmH2O.s/mL
- Baseline airway resistance, elastance and compliance after PBS inhalation (in words) ([4]; saline-challenged mice, i.v. 4 mg/kg day 25, compared to solvent-treated mice): no effect
- Cellular uptake (flow cytometry) [5]: Much less cellular uptake
- Autophagy markers SQSTM1 and MAP1LC3 ([6]; MRL/lpr B cells after P140 treatment (Page et al., 2011)): accumulation
- Expression of HSPA8 and LAMP-2A ([6]; MRL/lpr B cells after treating mice (Page et al., 2011; Macri et al., in press)): down-regulated
